{"source": "paper PMC5522311", "about": "“Adapting AlphaLISA high throughput screen to discover a novel small-molecule inhibitor targeting protein arginine methyltransferase 5 in pancreatic and colorectal cancers” (Oncotarget, 2017)", "target": "T1, protein arginine methyltransferase 5 (PRMT5) (Homo sapiens, UniProt O14744)", "T1 construct": "Flag-tagged WT-PRMT5 purified from 293 cells with anti-Flag-M2 beads", "T1 sequence (O14744 2-637)": "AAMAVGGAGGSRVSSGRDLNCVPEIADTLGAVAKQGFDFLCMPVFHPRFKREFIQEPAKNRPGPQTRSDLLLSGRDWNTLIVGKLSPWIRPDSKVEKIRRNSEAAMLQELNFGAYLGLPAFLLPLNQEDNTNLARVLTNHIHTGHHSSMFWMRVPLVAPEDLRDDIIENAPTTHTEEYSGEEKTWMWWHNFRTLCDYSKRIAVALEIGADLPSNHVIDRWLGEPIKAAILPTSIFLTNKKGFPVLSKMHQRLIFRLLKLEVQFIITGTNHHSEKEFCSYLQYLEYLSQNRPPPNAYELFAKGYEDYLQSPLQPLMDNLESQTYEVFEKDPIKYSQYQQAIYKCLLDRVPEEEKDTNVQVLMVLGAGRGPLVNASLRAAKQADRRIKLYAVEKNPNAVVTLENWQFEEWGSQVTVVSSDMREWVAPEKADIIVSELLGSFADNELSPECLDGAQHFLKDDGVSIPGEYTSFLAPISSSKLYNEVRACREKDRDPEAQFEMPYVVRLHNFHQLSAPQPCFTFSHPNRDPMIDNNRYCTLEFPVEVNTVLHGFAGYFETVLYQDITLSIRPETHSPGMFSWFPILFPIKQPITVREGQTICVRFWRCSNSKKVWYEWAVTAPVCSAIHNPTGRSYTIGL", "assay": "AlphaLISA methyltransferase assay (biotinylated histone H4 R3 symmetric dimethylation)", "format": "biochemical", "data": [{"smiles": "Cc1ccc(Nc2nc(NCCN(C)C)nc3c2cnn3-c2ccccc2)cc1C", "note": "[PR5-LL-CM01]", "values": [{"measurement": "IC50", "value": 7.5, "unit": "µM"}]}]}
